Results on one compound are retold here after US7872043B2, “Use of furan alkyls for a cellulite cosmetic treatment” (Laboratories Expanscience, priority 2004, dated 2011).

The test system of data set [1] is mice fattened on a high fat/high sucrose diet (HF/HS). In words: Intra Peritoneal Insulin Sensitive Test (IPIST). Format: in vivo. The conditions noted are these: preventive; TZD 10 mg/kg/day; (3 W***). The source says: Diabetics suffer from an increase in insulin resistance which leads to hyperglycaemia.
Data set [2] has the same test system. In words: Blood parameters: plasma lipids (total cholesterol, LDL, HDL, TG, FFA). The format is in vivo. The conditions noted are these: TZD 10 mg/kg/day; for HDL / Total cholesterol: (3 W***). The protocol:
(§1) We used adult mice (aged 6 weeks) of masculine gender fattened on a high fat/high sucrose diet (HF/HS). Feeding with the HF/HS diet began on mice aged 6 weeks and continued throughout the period of the study. The study was conducted along 2 axes: • prevention: the product was administered as soon as feeding began with the HF/HS diet; • management (curative): the product was administered 12 weeks after the start of the HF/HS diet. Total treatment time (preventive and curative): 23 weeks.
(§2) Each experimental group comprised 10 mice.
(§3) Subsequently the following were analysed: lipoprotein profile (by size exclusion chromatography); apolipoportein A1; lipid composition of the liver (liver triglycerides, cholesterol and free fatty acids); histological analysis of the liver and adipose tissue; staining of accumulated lipids in the liver.
(§4) The different cholesterol blood levels and different fractions were analysed using a HPLC method.

Another data set has as its system ACO (target PPARα). In words: Liver mRNA expression, real-time Q-RT-PCR: ACO. The format is in vivo. Particulars: TZD; AV102 (0.25%); 5 mice per group. The protocol: (§5) In the liver, the mRNA expressions of 8 genes were determined in 5 mice of each group using real-time Q-RT-PCR analysis.
In data set [3] the test system is mice fattened on a high fat/high sucrose diet (HF/HS). In words: Blood glucose and insulin analysis. The format is in vivo. Particulars: TZD 10 mg/kg/day. On the procedure: as §1, §2, §3
The test system is the same in data set [4]. In words: Food intake and weight gain of mice on HF/HS diet. The conditions noted are these: curative; TZD 10 mg/kg/dy. The format is in vivo. The protocol: as §1, §2
Data set [5] deals with ME, FAS, ACC (fatty acid synthesis). In words: Liver mRNA expression, real-time Q-RT-PCR: ME, FAS, ACC. The conditions noted are these: TZD; AV102 (0.25%). The format is in vivo, mice. The protocol: as §5
Data set [6] has as its system PGC-1 (mitochondria biogenesis). In words: Muscle/BAT mRNA expression: PGC-1. Format: in vivo, mice. The conditions noted are these: TZD, AV102 (0.25%). On the procedure:
In the brown adipose tissue (BAT) and in the muscles, the mRNA expression of 3 genes was determined in 5 mice of each group by real-time Q-RTR-PCR analysis.

Data set [7] has as its system mice fattened on a high fat/high sucrose diet (HF/HS). In words: Plasma lipoprotein profile (size exclusion chromatography). Format: in vivo. The conditions noted are these: TZD. On the procedure:
as §1, §2, §3, §4

Another data set concerns PEPCK (target PPARγ). In words: Liver mRNA expression, real-time Q-RT-PCR: PEPCK. Particulars: TZD; AV102 (0.25%). Format: in vivo, mice. The protocol: as §5
The test system of data set [8] is mice fattened on a high fat/high sucrose diet (HF/HS). In words: Hepatic metabolism: transaminases and alkaline phosphatase (liver toxicity). Particulars: TZD and AV102 groups; considered very moderate, does not appear to reflect liver toxicity. Format: in vivo.
Another data set deals with CYP7A1. In words: Liver mRNA expression, real-time Q-RT-PCR: CYP7A1. Format: in vivo, mice. The conditions noted are these: TZD; AV102 (0.25%). On the procedure:
as §5

Molecules are shown by their SMILES.

In the case of `CN(CCOc1ccc(CC2SC(=O)NC2=O)cc1)c1ccccn1` (stereo not drawn) [TZD, Rosiglitazone], the “IPIST (insulin sensitivity test)” value in [1] is given as “↓↓”. Also, in [2] (curative), the LDL result is on record as “reduction”, the “TG (Triglycerides)” value is listed as “No change”, the HDL entry was “reduction” and the Total cholesterol entry is given as “reduction”. Besides, in data set [2] (preventive), the LDL result is “downward trend”, the “TG (Triglycerides)” value is “significantly reduced”, the HDL result is recorded as “significant reduction” and the Total cholesterol entry is given as “significant reduction”. Also, the “ACO (target PPARα) mRNA in the liver” value in the data set with ACO (target PPARα) was “↑”. Moreover, in data set [3] (curative, (3 W**)), the “GLUCOSE (blood)” value was “dropped considerably and ↓↓”. In data set [3] (preventive), the “GLUCOSE (blood)” value is on record as “↓” and the “INSULIN (blood)” value is given as “↓”. For the same compound, the Mouse wt. entry in data set [4] is reported as “did not cause the overweight mice to lose weight”. Further, in [5], the “ME, FAS, ACC (fatty acid synthesis) mRNA in the liver” value was “↑↑”. For the same compound, the “PGC-1 (mitochondria biogenesis) mRNA in muscle/BAT” value in [6] is recorded as “↑ (muscle)”. Further, the “Fractions of HDL and VLDL cholesterol (lipoprotein profiles)” value in data set [7] (curative, after 3 weeks' treatment) is listed as “reduction”. Also, the “HDL, LDL and VLDL cholesterol fractions (plasma lipoprotein profiles)” value in data set [7] (preventive, weeks 8 and 15) is given as “reduction”. Also, in the data set with PEPCK (target PPARγ), the “PEPCK (target PPARγ) mRNA in the liver” value is “↑”. In addition, the “Plasma ALP” value in data set [8] is “increase”. For the same compound, in the data set with CYP7A1, the “CYP7A1 (conversion oxysterol into biliary acids) mRNA in the liver” value is recorded as “↑↑”.
